Values quoted from earlier work, collected in US10281459B2, “Protein biosensors, cross reactive sensor arrays and methods of use thereof” (YEDA RESEARCH AND DEVELOPMENT CO. LTD., priority 2012, dated 2019).

Key:
GSTs = settings: literature
MMP isoforms = settings: broad-spectrum inhibitor of MMP isoforms; literature

Row | Compound | reported values for the inhibition of GSTs (GSTs) | Ki values (MMP isoforms)
1 | C=C(CC)C(=O)c1ccc(OCC(=O)O)c(Cl)c1Cl [EA, ethacrynic acid] | low micromolar range | 
2 | CNC(=O)[C@@H](NC(=O)[C@H](CC(C)C)[C@H](O)C(=O)NO)C(C)(C)C [Marimastat, marimastat] |  | low nanomolar range
